From patent publication US20250034125A1, “COMPOUNDS AND USES THEREOF” (JANSSEN PHARMACEUTICA NV, priority 2019, published 2025) come the findings set out here.

Molecules are shown by their SMILES. Read-outs that look alike come from different tables or passages of the source.

The target of one experiment is T1, SCD1 (Homo sapiens, UniProt O00767).
T1 construct: host or cells: Saccharomyces cerevisiae ole1Δ strain (W303 pdr1Δ pdr3Δ background), plasmid pRS316, TDH3 promoter
T1 sequence (O00767 1-359): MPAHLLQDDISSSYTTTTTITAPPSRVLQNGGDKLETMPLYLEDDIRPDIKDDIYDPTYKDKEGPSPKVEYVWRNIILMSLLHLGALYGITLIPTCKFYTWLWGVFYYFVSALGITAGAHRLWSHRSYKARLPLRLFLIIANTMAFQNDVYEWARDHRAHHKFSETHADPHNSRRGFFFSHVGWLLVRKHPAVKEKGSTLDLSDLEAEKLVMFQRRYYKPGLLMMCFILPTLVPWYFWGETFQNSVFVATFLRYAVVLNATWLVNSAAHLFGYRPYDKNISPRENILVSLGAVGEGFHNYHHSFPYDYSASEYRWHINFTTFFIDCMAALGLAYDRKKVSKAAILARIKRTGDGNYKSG
Nature of the experiment: Growth inhibition of yeast (ole1Δ) expressing human SCD1 as the sole desaturase. The class given is cell-based.

The next experiment has as its target T2, SCD5 (Homo sapiens, UniProt Q86SK9).
T2 construct: host or cells: Saccharomyces cerevisiae ole1Δ strain (W303 pdr1Δ pdr3Δ background), plasmid pRS316, TDH3 promoter
T2 sequence (Q86SK9 1-330): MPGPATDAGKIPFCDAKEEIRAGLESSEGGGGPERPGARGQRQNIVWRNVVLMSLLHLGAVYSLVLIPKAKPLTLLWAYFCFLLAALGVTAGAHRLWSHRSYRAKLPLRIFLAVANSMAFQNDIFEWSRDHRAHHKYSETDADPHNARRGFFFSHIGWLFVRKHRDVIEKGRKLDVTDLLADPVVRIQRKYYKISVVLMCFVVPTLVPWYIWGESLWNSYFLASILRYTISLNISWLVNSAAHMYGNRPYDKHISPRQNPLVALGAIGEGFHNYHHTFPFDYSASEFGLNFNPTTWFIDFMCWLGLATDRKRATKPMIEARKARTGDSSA
As to the kind of experiment: Growth inhibition of yeast (ole1Δ) expressing human SCD5 as the sole desaturase. In kind it is cell-based.

Setting [1] is: yeast strain with SCD1 plasmid, OD600 growth read at 40 h, read-out: SCD1 IC50.
The mark [2] stands for this setting: yeast strain with SCD5 plasmid, OD600 growth read at 40 h, read-out: SCD5 IC50.

A word on the IC50: it is the point on the concentration scale where inhibition reaches its midpoint. With `Cn1nc(NC(=O)N2CCC(Oc3ccc(F)cc3C(F)(F)F)CC2)ccc1=O` [Compound 85], the IC50 at SCD1 (setting [1]) was determined as 80 nM; on SCD5 (setting [2]) it was 50 nM.
In the case of `Cn1nc(NC(=O)N2CCC(Oc3cc(F)ccc3C(F)(F)F)CC2)ccc1=O` [Compound 86, 4-(5-fluoro-2-(trifluoromethyl)phenoxy)-N-(1-methyl-6-oxo-1,6-dihydropyridazin-3-yl)piperidine-1-carboxamide], the IC50 at SCD1 (setting [1]) and on SCD5 (setting [2]) was 10 nM each time.
In the case of `Cn1nc(NC(=O)N2CCC(Oc3cccc(C#N)c3Cl)CC2)ccc1=O` [Compound 87, 4-(2-chloro-3-cyanophenoxy)-N-(1-methyl-6-oxo-1,6-dihydropyridazin-3-yl)piperidine-1-carboxamide], the IC50 on SCD1 (setting [1]) and at SCD5 (setting [2]) was over 45000 nM throughout.
Regarding `Cn1nc(NC(=O)N2CCC(Oc3ccc(C(F)(F)F)c(F)c3)CC2)ccc1=O` [Compound 88, 4-(3-fluoro-4-(trifluoromethyl)phenoxy)-N-(1-methyl-6-oxo-1,6-dihydropyridazin-3-yl)piperidine-1-carboxamide], the IC50 is 70 nM at SCD1 (setting [1]) and 30 nM at SCD5 (setting [2]).
The like results for `Cn1nc(NC(=O)N2CCC(Oc3cc(F)c(F)c(Cl)c3)CC2)ccc1=O` [Compound 89, 4-(3-chloro-4,5-difluorophenoxy)-N-(1-methyl-6-oxo-1,6-dihydropyridazin-3-yl)piperidine-1-carboxamide] were, in that order, 260 nM and 60 nM.
For `Cn1nc(NC(=O)N2CCC(Oc3cc(F)c(F)c(C#N)c3)CC2)ccc1=O` [Compound 90, 4-(3-cyano-4,5-difluorophenoxy)-N-(1-methyl-6-oxo-1,6-dihydropyridazin-3-yl)piperidine-1-carboxamide] the same measures were 10300 nM and 7180 nM.
For the compound `Cn1nc(NC(=O)N2CCC(Nc3ccccc3C(F)(F)F)CC2)ccc1=O` [Compound 92, N-(1-methyl-6-oxo-1,6-dihydropyridazin-3-yl)-4-(2-(trifluoromethyl)phenylamino) piperidine-1-carboxamide], the values for the IC50 on SCD1 (setting [1]) and on SCD5 (setting [2]) were 2400 nM and 390 nM, respectively.
Regarding `Cn1nc(NC(=O)N2CCC(Nc3cc(F)cc(Cl)c3)CC2)ccc1=O` [Compound 93, 4-((3-chloro-5-fluorophenyl)amino)-N-(1-methyl-6-oxo-1,6-dihydropyridazin-3-yl)piperidine-1-carboxamide], the IC50 is over 45000 nM against SCD1 and 15000 nM on SCD5.
The like results for `Cn1nc(NC(=O)N2CCC(Nc3cc(F)cc(F)c3)CC2)ccc1=O` [Compound 94, 4-((3,5-difluorophenyl)amino)-N-(1-methyl-6-oxo-1,6-dihydropyridazin-3-yl)piperidine-1-carboxamide] were, in that order, over 45000 nM and over 45000 nM.
For `CN(c1cc(F)cc(F)c1)C1CCN(C(=O)Nc2ccc(=O)n(C)n2)CC1` [Compound 95], the IC50 at SCD1 (setting [1]) is over 45000 nM; at SCD5 (setting [2]) it was 12000 nM.
For `Cn1nc(NC(=O)N2CCC(OCc3cccc(F)c3)CC2)ccc1=O` [Compound 96, 4-(3-fluorobenzyloxy)-N-(1-methyl-6-oxo-1,6-dihydropyridazin-3-yl)piperidine-1-carboxamide] the same measures were over 45000 nM and 26400 nM.
Regarding `Cn1nc(NC(=O)N2CCC(OCc3ccccc3F)CC2)ccc1=O` [Compound 97, 4-(2-fluorobenzyloxy)-N-(1-methyl-6-oxo-1,6-dihydropyridazin-3-yl)piperidine-1-carboxamide], the half-inhibitory concentration (IC50) on SCD1 (setting [1]) is over 45000 nM; at SCD5 (setting [2]), 26100 nM.
Turning to `Cn1nc(NC(=O)N2CCC(COc3ccccc3Cl)CC2)ccc1=O` [Compound 98, 4-((2-chlorophenoxy)methyl)-N-(1-methyl-6-oxo-1,6-dihydropyridazin-3-yl)piperidine-1-carboxamide], the IC50 came out at 5180 nM at SCD1 (setting [1]) and 1350 nM at SCD5 (setting [2]).
The like results for `Cn1nc(NC(=O)N2CCC(COc3ccccc3F)CC2)ccc1=O` [Compound 99, 4-((2-fluorophenoxy)methyl)-N-(1-methyl-6-oxo-1,6-dihydropyridazin-3-yl)piperidine-1-carboxamide] were, in that order, 32500 nM and 6870 nM.
For `Cn1nc(NC(=O)N2CCC(COc3ccccc3C(F)(F)F)CC2)ccc1=O` [Compound 100, N-(1-methyl-6-oxo-1,6-dihydropyridazin-3-yl)-4-((2-(trifluoromethyl)phenoxy)methyl)piperidine-1-carboxamide] the same measures were 4490 nM and 220 nM.
With `Cn1nc(NC(=O)N2CCC(COc3cccc(F)c3)CC2)ccc1=O` [Compound 101, 4-((3-fluorophenoxy)methyl)-N-(1-methyl-6-oxo-1,6-dihydropyridazin-3-yl)piperidine-1-carboxamide], the IC50 at SCD1 (read-out: SCD1 IC50) and at SCD5 (read-out: SCD5 IC50) was over 45000 nM throughout.
In the case of `Cn1nc(NC(=O)N2CCC(NCc3cc(F)cc(F)c3)CC2)ccc1=O` [Compound 104, 4-(3,5-difluorobenzylamino)-N-(1-methyl-6-oxo-1,6-dihydropyridazin-3-yl)piperidine-1-carboxamide], the IC50 on SCD1 (setting [1]) and at SCD5 (setting [2]) was over 45000 nM in each case.
`Cn1nc(NC(=O)N2CCC(NCc3ccccc3C(F)(F)F)CC2)ccc1=O` [Compound 105, N-(1-methyl-6-oxo-1,6-dihydropyridazin-3-yl)-4-(2-(trifluoromethyl)benzylamino) piperidine-1-carboxamide]: the IC50 on SCD1 (setting [1]) and at SCD5 (setting [2]) was over 45000 nM throughout.
`Cn1nc(OC(=O)N2CCC(Oc3ccc(F)c(F)c3)CC2)ccc1=O` [Compound 107]: the IC50 on SCD1 (setting [1]) is over 45000 nM; on SCD5 (setting [2]), 7930 nM.
For `Cn1nc(OC(=O)N2CCC(Oc3cc(F)cc(F)c3)CC2)ccc1=O` [Compound 108] the same measures were 9000 nM and 5010 nM.
The like results for `Cn1nc(OC(=O)N2CCC(Cc3cc(F)cc(F)c3)CC2)ccc1=O` [Compound 109] were, in that order, over 45000 nM and 4850 nM.
Take `Cn1nc(-c2nc(N3CCC(Oc4cc(F)cc(F)c4)CC3)no2)ccc1=O` [Compound 111, 6-(3-(4-(3,5-difluorophenoxy)piperidin-1-yl)-1,2,4-oxadiazol-5-yl)-2-methylpyridazin-3(2H)-one]: the figures for the IC50 on SCD1 (setting [1]) and on SCD5 (setting [2]) were over 45000 nM and 610 nM, respectively.
`Cn1nc(-c2nc(N3CCC(Oc4cccc(F)c4Cl)CC3)no2)ccc1=O` [Compound 112, 6-(3-(4-(2-chloro-3-fluorophenoxy)piperidin-1-yl)-1,2,4-oxadiazol-5-yl)-2-methylpyridazin-3(2H)-one]: the IC50 at SCD1 (setting [1]) was 500 nM; on SCD5 (setting [2]), 600 nM.
The like results for `Cn1nc(-c2nc(N3CCC(Cc4ccccc4)CC3)no2)ccc1=O` [Compound 113, 6-(3-(4-benzylpiperidin-1-yl)-1,2,4-oxadiazol-5-yl)-2-methylpyridazin-3(2H)-one] were, in that order, over 45000 nM and 380 nM.
The like results for `Cn1nc(-c2nc(N3CCC(Cc4cc(F)cc(F)c4)CC3)no2)ccc1=O` [Compound 115, 6-(3-(4-(3,5-difluorobenzyl)piperidin-1-yl)-1,2,4-oxadiazol-5-yl)-2-methylpyridazin-3(2H)-one] were, in that order, 450 nM and 10 nM.
The like results for `Cn1nc(-c2nc(N3CCC(Cc4ccc(F)c(F)c4)CC3)no2)ccc1=O` [Compound 116, 6-(3-(4-(3,4-difluorobenzyl)piperidin-1-yl)-1,2,4-oxadiazol-5-yl)-2-methylpyridazin-3(2H)-one] were, in that order, 860 nM and 10 nM.
For the compound `Cn1nc(-c2nc(N3CCC(Cc4cc(Cl)cc(C#N)c4)CC3)no2)ccc1=O` [Compound 117, 3-chloro-5-((1-(5-(1-methyl-6-oxo-1,6-dihydropyridazin-3-yl)-1,2,4-oxadiazol-3-yl)piperidin-4-yl)methyl)benzonitrile], the 50% inhibitory concentration (IC50) on SCD1 (setting [1]) was determined as 2000 nM; on SCD5 (setting [2]), 30 nM.
For `Cn1nc(-c2nnc(N3CCC(Cc4cc(F)cc(F)c4)CC3)o2)ccc1=O` [Compound 118, 6-(5-(4-(3,5-difluorobenzyl)piperidin-1-yl)-1,3,4-oxadiazol-2-yl)-2-methylpyridazin-3(2H)-one] the same measures were 26300 nM and 70 nM.
As to `Cn1nc(-c2nnc(N3CCC(Cc4cccc(F)c4)CC3)o2)ccc1=O` [Compound 119, 6-(5-(4-(3-fluorobenzyl)piperidin-1-yl)-1,3,4-oxadiazol-2-yl)-2-methylpyridazin-3(2H)-one], the IC50 is over 45000 nM at SCD1 (setting [1]) and 160 nM on SCD5 (setting [2]).
The like results for `Cn1nc(-c2nnc(N3CCC(Cc4cc(F)cc(F)c4)CC3)s2)ccc1=O` [Compound 121, 6-(5-(4-(3,5-difluorobenzyl)piperidin-1-yl)-1,3,4-thiadiazol-2-yl)-2-methylpyridazin-3(2H)-one] were, in that order, 180 nM and 10 nM.
